# Test results from ChEMBL document CHEMBL3621174, “Synthesis and evaluation of new tyrosyl-tRNA synthetase inhibitors as antibacterial agents based on a N2-(arylacetyl)glycinanilide scaffold” (Eur J Med Chem, 2015).
# pIC50: −log10 of the molar value.
# Tests used:
# Escherichia coli [1] = assay: Antibacterial activity against Escherichia coli ATCC 35218 after 24 hr by MTT assay; assay type: functional; conditions: ATCC 35218, 24 h
# Staphylococcus aureus [2] = assay: Antibacterial activity against Staphylococcus aureus ATCC 6538 after 24 hr by MTT assay; assay type: functional; conditions: ATCC 6538, 24 h
# Pseudomonas aeruginosa = assay: Antibacterial activity against Pseudomonas aeruginosa ATCC 9027 after 24 hr by MTT assay; assay type: functional; conditions: ATCC 9027, 24 h
# Staphylococcus aureus [3] = assay: Antibacterial activity against Staphylococcus aureus ATCC 25923 after 24 hr by MTT assay; assay type: functional; conditions: ATCC 25923, 24 h
# [4] = Inhibition of Staphylococcus aureus Tyrosyl-tRNA synthetase using L-[ring-3,5-3H] tyrosine as substrate after 10 min by liquid scintillation assay
# Escherichia coli [5] = assay: Antibacterial activity against Escherichia coli ATCC 8739 after 24 hr by MTT assay; assay type: functional; conditions: ATCC 8739, 24 h
Structure (SMILES),MIC (Escherichia coli [1]) [µM],MIC (Staphylococcus aureus [2]) [µM],MIC (Pseudomonas aeruginosa) [µM],MIC (Staphylococcus aureus [3]) [µM],pIC50 [4],MIC (Escherichia coli [5]) [µM]
O=C(Cc1ccccc1)NCC(=O)Nc1ccc(Cl)cc1,159,49.7,> 160,69.2,4.78,123
COc1ccc(NC(=O)CNC(=O)Cc2ccccc2Cl)cc1,> 160,> 160,> 160,> 160,3.72,> 160
Cc1ccc(CC(=O)NCC(=O)Nc2ccc([N+](=O)[O-])cc2)cc1,> 160,80.7,> 160,132,4.35,> 160
NC[C@H]1O[C@H](O[C@H]2[C@H](O)[C@@H](O[C@H]3O[C@H](CO)[C@@H](O)[C@H](N)[C@H]3O)[C@H](N)C[C@@H]2N)[C@H](O)[C@@H](O)[C@@H]1O [KANAMYCIN],4.35,–,7.16,–,–,1.26
O=C(Cc1ccccc1Cl)NCC(=O)Nc1ccc(Br)cc1,> 160,69.7,> 160,103,4.11,> 160
COc1ccc(NC(=O)CNC(=O)Cc2cccc(F)c2)cc1,> 160,> 160,> 160,> 160,4.03,> 160
O=C(Cc1cccc(F)c1)NCC(=O)Nc1ccc([N+](=O)[O-])cc1,19.6,3.14,18.2,4.11,5.94,12.3
O=C(Cc1ccccc1)NCC(=O)Nc1ccccc1,> 160,52.7,> 160,73.5,4.71,134
O=C(Cc1ccc(O)cc1)NCC(=O)Nc1ccc([N+](=O)[O-])cc1,144,28.6,134,34.1,4.99,86.9
O=C(Cc1ccccc1Cl)NCC(=O)Nc1ccc([N+](=O)[O-])cc1,19.7,6.51,34,8.41,5.60,13.5
O=C(Cc1ccccc1)NCC(=O)Nc1ccc(Br)cc1,> 160,113,> 160,> 160,4.30,> 160
COc1ccc(NC(=O)CNC(=O)Cc2ccc(O)cc2)cc1,> 160,> 160,> 160,> 160,3.50,> 160
COc1ccc(NC(=O)CNC(=O)Cc2ccccc2O)cc1,> 160,> 160,> 160,> 160,3.32,> 160
COc1ccc(NC(=O)CNC(=O)Cc2ccc(OC)c(OC)c2)cc1,> 160,> 160,> 160,> 160,3.25,> 160
O=C(Cc1cccc(Br)c1)NCC(=O)Nc1ccc(Br)cc1,> 160,97.2,> 160,> 160,4.23,> 160
O=C(Cc1ccccc1)NCC(=O)Nc1cccc(Cl)c1,> 160,> 160,> 160,> 160,3.84,> 160
O=C(Cc1ccccc1)NCC(=O)Nc1cc(Cl)cc(Cl)c1,> 160,> 160,> 160,> 160,3.88,> 160

Structure (SMILES),MIC (Escherichia coli [1]) [µM],MIC (Staphylococcus aureus [2]) [µM],MIC (Pseudomonas aeruginosa) [µM],MIC (Staphylococcus aureus [3]) [µM],pIC50 [4],MIC (Escherichia coli [5]) [µM]
COc1ccc(NC(=O)CNC(=O)Cc2ccccc2)cc1,> 160,> 160,> 160,> 160,4.09,> 160
COc1ccc(NC(=O)CNC(=O)Cc2ccc(Cl)cc2)cc1,> 160,> 160,> 160,> 160,4.15,> 160
O=C(Cc1cccc(Cl)c1)NCC(=O)Nc1ccc(Br)cc1,83.4,20.9,96.1,24.9,5.08,62.4
O=C(Cc1ccccc1)NCC(=O)Nc1ccc([N+](=O)[O-])cc1,15.8,2.81,18.2,3.67,6.06,11.2
COc1ccc(NC(=O)CNC(=O)Cc2cccc(Cl)c2)cc1,> 160,148,> 160,148,4.18,> 160
COc1ccc(NC(=O)CNC(=O)Cc2cccc(O)c2)cc1,> 160,> 160,> 160,> 160,3.55,> 160
COc1ccc(NC(=O)CNC(=O)Cc2ccc(F)cc2)cc1,> 160,> 160,> 160,> 160,3.95,> 160
O=C(Cc1ccccc1)NCC(=O)Nc1cccc([N+](=O)[O-])c1,> 160,103,> 160,156,4.32,> 160
O=C(Cc1ccccc1)NCC(=O)Nc1ccccc1Cl,> 160,> 160,> 160,> 160,3.69,> 160
O=C(Cc1ccc(Cl)cc1)NCC(=O)Nc1cc(Cl)cc(Cl)c1,> 160,> 160,> 160,> 160,3.60,> 160
O=C(Cc1ccc(F)cc1)NCC(=O)Nc1ccc([N+](=O)[O-])cc1,75.8,14.1,65.6,17,5.28,42.3
O=C(Cc1cccc(O)c1)NCC(=O)Nc1ccc([N+](=O)[O-])cc1,89.4,15.2,72,18.4,5.19,47.1
COc1ccc(NC(=O)CNC(=O)Cc2ccccc2)cc1OC,> 160,> 160,> 160,> 160,3.79,> 160
O=C(Cc1ccccc1)NCC(=O)Nc1cc(F)cc(F)c1,> 160,40.5,148,47.7,4.88,120
COc1ccc(CC(=O)NCC(=O)Nc2ccc([N+](=O)[O-])cc2)cc1OC,> 160,> 160,> 160,> 160,4.05,> 160
CC1(C)S[C@@H]2[C@H](NC(=O)Cc3ccccc3)C(=O)N2[C@H]1C(=O)O [PENICILLIN G],–,7.13,–,9.28,–,–
Cc1ccc(NC(=O)CNC(=O)Cc2cccc(Cl)c2)cc1,> 160,64.9,> 160,91.1,4.67,155
